Results from article PMC8047729, “Identification of a nanomolar affinity α-synuclein fibril imaging probe by ultra-high throughput in silico screening” (Chemical Science, 2020).
Entries after “also recorded” stand apart in the source; their conditions may differ.

What was measured:
αS fibrils [1] = target: T1, αS fibrils (Homo sapiens, UniProt P37840); assay: Photo-crosslinking assay with MALDI-MS of tryptic digest; format: binding; settings: 100 μM crosslinker, 365 nm irradiation, trypsin digest MALDI-MS
Method: Photo-crosslinking assay. Aggregations of αS prepared as described above were transferred to a clear glass vial to assist in photo -crosslinking, and compounds ClX1, ClX2, or DMSO (as a vehicle control) were delivered to their respective vials (100 μM final concentrations). The resulting fibril-crosslinker or fibril-DMSO mixture was incubated for 1 h at 37 °C, and thereafter irradiated with long wave UV from a TLC lamp (365 nm) for 1 h. The irradiated fibrils were then boiled in SDS (25 mM final concentration), and subjected to CHCl3/MeOH precipitation to remove excess detergent and buffer as previously described.2 The translucent brown protein pellet was then resuspended in 40 μL of sterilized, Milli-Q water. At this point, the whole protein sample was subjected to MALDI-MS analuysis by spotting 1 μL of sample in 1μL of sinapic acid matrix, prepared as a saturated solution in a 50:50 mixture of ACN:H2O with 0.1% TFA. The remaining sample was digested using trypsin (Promega Corporation) at 37 °C overnight (50 mM NH4CO3, 1 mM CaCl2, 1:50-1:100 protein:trypsin ratio). The resulting tryptic peptide mixture was diluted 1:10 in sterile water with 0.1% TFA, and analyzed via MALDI-MS by spotting 1 μL of sample in 1 μL of CHCA matrix or DHB matrix, prepared as saturated solutions in a 50:50 mixture of ACN:H2O with 0.1% TFA. […]

[2] = target: αS fibrils in mouse brain lysate (Homo sapiens, UniProt P37840); assay: Photo-crosslinking and click labeling in mouse brain lysate; format: binding; settings: 50 μM CLX2, 50 μM αS fibrils, 10 mg/ml lysate
Source text: Photo-crosslinking in Mouse Brain Lysate
Total Mouse Brain Protein Preparation. Mice were anesthetized using isoflurane gas in a closed chamber (AKORN, Lake Forest, IL, USA) followed by cervical dislocation. Brains were quickly dissected and snap-frozen in dry ice. Mouse brains were mechanically homogenized in five -fold excess (w/w) RIPA buffer (Thermo Fisher Scientific; Waltham, MA, USA ) using a ground glass tissue plunger. Homogenized sample was then subjected to probe sonication (Qsonica, Newtown, CT, USA) on ice using a microtip, at an amplitude of 50% at intervals of 10 s on 20 s off, for a total process-time (on-time) of 5 minutes. Crude lysate was then clarified by centrifugation at 10,000xg at 4 °C for 60 min. […] The lysate total protein concentration was then determined using the Bio-Rad detergent compatible (DC) protein assay […]
samples (50 µM final concentration), followed by “click -mix” (50 µM copper sulfate, 100 µM THPTA final concentration), sodium ascorbate (200 µM final concentration), and PBS to achieve a final volume of 200 µL. […] Samples were then analyzed via SDS-PAGE using a 4-12% Bis-Tris pre-cast gel (NuPAGE, Thermo Fisher Scientific). αS monomer labeled with BODIPY-FL maleimide (prepared as previously described13) was used as a control. […]

αS fibrils [3] = target: T1, αS fibrils
Method: (§1) αS (50 nM) or Aβ42 (100 nM) fibrils were incubated for 1 h at 37 °C with increasing concentrations of [^125I]61 in 50 mM Tris–HCl, pH 7.4, in a total volume of 150 μL. Nonspecific binding was determined in a duplicate set of binding reactions containing 2 μM non-radioactive 61. After incubation, bound and free radioligand were separated by vacuum filtration through Whatman GF/C filters in a 24-sample harvester system, followed by washing with buffer containing 10 mM Tris–HCl (pH 7.4) and 150 mM NaCl. Filters containing the bound ligand were counted immediately on 2470 WIZARD Automatic Gamma Counter. All data points were collected in triplicate. The equilibrium dissociation constant (Kd) and the maximal number of binding sites (Bmax) were determined by fitting the data to the equation Y = Bmax × X/(Kd + X), using GraphPad Prism software.
(§2) Saturation binding assay. αS (50 nM) or Ab42 (100 nM) fibrils were incubated for 1 h at 37 °C
(§3) with increasing concentrations of [125I]61 in 50 mM Tris-HCl, pH 7.4, in a total volume of 150
(§4) µL. Nonspecific binding was determined in a duplicate set of binding reactions containing 2 µM
unlabeled 61. To measure the amount of radioligand binding to the filter paper, fibrils were
replaced with equal volume of buffer in a duplicate set of binding reactions. After incubation,
bound and free radioligand were separated by vacuum filtration through Whatman GF/C filters
(Brandel) in a 24-sample harvester system (Brandel), followed by washing with buffer containing
10 mM Tris-HCl (pH 7.4) and 150 mM NaCl. Filters containing the bound ligand were counted
immediately on 2470 WIZARD Automatic Gamma Counter (Perkin Elmer). All data points were
acquired in triplicate. The equilibrium dissociation constant (Kd) and the maximal number of
binding sites (Bmax) were determined by globally fitting the total binding and nonspecific binding
Y = Bmax*[X/(Kd+X)] + NS*X (S2)
where X is the concentration of ligand ([125I]61) and NS is nonspecific binding, using GraphPad
Prism software (San Diego, CA, USA).

[4] = tested on: A53T and control mouse brain sections; format: binding
Aβ42 fibrils = Aβ42 fibrils (Homo sapiens, UniProt P05067)
Sequence of Aβ42 fibrils (P05067 672-713 limits assumed): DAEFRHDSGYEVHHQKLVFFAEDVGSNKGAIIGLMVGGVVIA
Method: as §1, §2, §3, §4
unlabeled 61. To measure the amount of radioligand binding to the filter paper, fibrils were […]
10 mM Tris-HCl (pH 7.4) and 150 mM NaCl. Filters containing the bound ligand were counted […]
binding sites (Bmax) were determined by globally fitting the total binding and nonspecific binding […]

Row | SMILES | Crosslinked site / peptide fragment on αS fibrils (αS fibrils [1]) | Binding by crosslinking and fluorescent azide labeling in mouse brain lysate [2] | Kd (αS fibrils [3]) [nM] | Levels of non-specific binding (αS fibrils [3]; saturation binding experiments) | Autoradiography signal in whole brain sections [4] | Kd (Aβ42 fibrils) [nM]
1 | C#CCCC1(CCOc2ccc(OCC(=O)Nc3cc(-c4ccc(I)cc4)no3)cc2)N=N1 [ClX2] | residues 22-34; also recorded: Site 2 | binding to αS fibrils, but also to many other proteins in mouse brain lysate | – | – | – | –
2 | Cc1ccc(OCC(=O)Nc2cc(-c3ccc([125I])cc3)no2)cc1C [[^125I]61] | – | – | 1.06 | relatively high | increased signal in A53T mouse brain in αS-rich regions compared with the control | 4.56
